Read-outs that look alike come from different tables or passages of the source. Numbered stars: 1 amine (or outer) side, 2 acyl side, 3 side chain; on linkers, the order of the positions; unused ones are H or OH. Bridge positions count the residues as written; N and C are the ends. Side chains are listed from the residue outwards. Peptide text beside a SMILES is read from it. * marks the point of attachment. C20 diacid = O=C(O)CCCCCCCCCCCCCCCCCCC(=O)*; γGlu = O=C(O)[C@H](CCC(=O)[*:2])N[*:1]; AEEA = NCCOCCOCC(=O)O
How the values were obtained:
[1] = target: T1, human calcitonin (a) receptor in BHK570 cells (Homo sapiens, UniProt P30988); assay: ASSAY (II)a functional assay, human calcitonin receptor (CRE luciferase); type: cell-based; details: read-out: hCTR funct. EC50
T1 construct: expressed in transfected cells
T1 sequence (P30988 25-474): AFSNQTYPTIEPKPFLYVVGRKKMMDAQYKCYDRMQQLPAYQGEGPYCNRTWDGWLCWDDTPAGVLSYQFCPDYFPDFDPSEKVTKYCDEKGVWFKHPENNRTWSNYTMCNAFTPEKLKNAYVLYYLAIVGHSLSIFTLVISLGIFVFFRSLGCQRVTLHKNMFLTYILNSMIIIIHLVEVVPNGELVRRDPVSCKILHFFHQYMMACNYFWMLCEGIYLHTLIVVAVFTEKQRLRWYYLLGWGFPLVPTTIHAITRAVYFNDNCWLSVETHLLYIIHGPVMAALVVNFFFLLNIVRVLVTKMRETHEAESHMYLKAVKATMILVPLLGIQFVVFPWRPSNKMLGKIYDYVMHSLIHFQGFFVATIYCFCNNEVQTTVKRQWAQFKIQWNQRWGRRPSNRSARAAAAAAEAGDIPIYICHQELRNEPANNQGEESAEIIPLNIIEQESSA
How it was run: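 Receptor activation is measured as cAMP-driven CRE-luciferase expression in BHK cells expressing the calcitonin receptor, with RAMP-3 co-expressed to form the amylin 3(a) receptor. Cells are exposed to compound for 3 hours at 37° C, and luciferase is then quantified by luminescence.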

[2] = ASSAY (IV) determination of solubility; type: physicochemical
How it was run: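 UPLC read-out of polypeptide concentration after centrifugation. Samples: aqueous polypeptide stock ([…]) + 100 mM buffer 1:1, glycylglycine pH 3.0–5.0 or bistrispropane pH 6.0–8.0; 18 h, RT.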

[3] = target: T2, human amylin receptor (membranes from Amylin 3(a)/CRE-luc cells) (Homo sapiens, UniProt O60896+P30988); assay: ASSAY (V) binding to the human amylin receptor (SPA, 125I-rat amylin); details: for IC50: Table 4, read-out: hAmylin-R bind IC50;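 for all read-outs here: competition binding of cell membranes (35 ng/µL) mixed with SPA beads in 384-well plates at 40 µL total volume, read by scintillation counting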
T2 construct: expressed in transfected cells
T2 sequence (P30988 25-474): T1 sequence (P30988 25-474)
T2 sequence (O60896 24-148 partner): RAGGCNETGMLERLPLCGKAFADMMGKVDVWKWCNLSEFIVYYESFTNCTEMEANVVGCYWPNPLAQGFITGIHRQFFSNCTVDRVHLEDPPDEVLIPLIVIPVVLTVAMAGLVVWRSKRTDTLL

[4] = target: T3, rat amylin receptor (rat calcitonin receptor + rat RAMP 3) (Rattus norvegicus, UniProt P32214+Q9JJ73); assay: ASSAY (VI) binding to the rat amylin receptor; details: for IC50: binding to rat amylin receptor, read-out: rAmylin-R bind IC50
T3 construct: expressed in transfected cells; host or cells: BHK tk'ts 13 (transient, FuGENE 6), membranes
T3 sequence (P32214 25-479 isoform P32214-2 limits assumed): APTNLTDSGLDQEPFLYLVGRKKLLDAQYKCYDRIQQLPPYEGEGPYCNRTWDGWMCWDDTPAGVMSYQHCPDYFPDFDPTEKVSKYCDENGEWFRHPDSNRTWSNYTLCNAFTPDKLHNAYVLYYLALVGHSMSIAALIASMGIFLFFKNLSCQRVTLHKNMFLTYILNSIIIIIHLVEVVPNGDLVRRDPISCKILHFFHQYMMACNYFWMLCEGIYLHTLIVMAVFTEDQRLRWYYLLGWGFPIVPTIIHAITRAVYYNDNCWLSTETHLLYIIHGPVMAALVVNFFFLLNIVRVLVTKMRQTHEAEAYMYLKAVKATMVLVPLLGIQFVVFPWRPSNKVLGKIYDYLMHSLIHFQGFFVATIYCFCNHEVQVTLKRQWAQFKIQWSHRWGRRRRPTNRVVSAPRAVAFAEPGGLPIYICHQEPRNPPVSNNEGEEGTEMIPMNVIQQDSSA
T3 sequence (Q9JJ73 23-147 partner): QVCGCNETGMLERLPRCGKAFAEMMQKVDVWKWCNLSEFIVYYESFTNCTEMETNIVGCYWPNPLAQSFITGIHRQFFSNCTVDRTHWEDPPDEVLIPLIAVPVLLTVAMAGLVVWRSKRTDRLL
How it was run: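 Membranes for this rat amylin receptor binding assay came from BHK tk′ts 13 cells. The cells were transiently transfected with rat calcitonin receptor using the FuGENE® 6 reagent from Roche, as the manufacturer recommends. The cells were collected approximately 48 hours after transfection, and membranes were then prepared.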

[5] = target: T4, human calcitonin receptor (Homo sapiens, UniProt P30988); assay: ASSAY (VII) binding to the human calcitonin receptor (SPA, 125I-Calcitonin); details: read-out: hCTR bind IC50;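 note: cell membranes (35 ng/µL) combined with SPA beads in 40 µL of pH 7.4 Hepes buffer, 384-well format, signal counted on a TopCounter instrument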
T4 construct: expressed in transfected cells
T4 sequence (P30988 25-474): T1 sequence (P30988 25-474)

[6] = target: T5, rat calcitonin receptor (Rattus norvegicus, UniProt P32214); assay: ASSAY (VIII) binding to the rat calcitonin receptor; details: Table 7, read-out: rCTR bind IC50
T5 construct: expressed in transfected cells; host or cells: BHK tk'ts 13 (transient, FuGENE 6), membranes
T5 sequence (P32214 25-479 isoform P32214-2 limits assumed): T3 sequence (P32214 25-479 isoform P32214-2 limits assumed)
How it was run: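 Receptor source: membranes from transiently transfected BHK tk′ts 13 cells expressing rat calcitonin receptor, collected roughly 48 hours after transfection.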

[7] = bistrispropane buffer, pH 6.5, read-out: Solubility pH 6.5 Concentration
[8] = bistrispropane buffer, pH 7.5, read-out: Solubility pH 7.5 Concentration
[9] = bistrispropane buffer, pH 6.0, read-out: Solubility pH 6.0 Concentration
[10] = bistrispropane buffer, pH 7.0, read-out: Solubility pH 7.0 Concentration
[11] = bistrispropane buffer, pH 8.0, read-out: Solubility pH 8.0 Concentration
[12] = glycylglycine buffer, pH 3.0, read-out: Solubility pH 3.0 Concentration
[13] = glycylglycine buffer, pH 4.0, read-out: Solubility pH 4.0 Concentration
[14] = glycylglycine buffer, pH 5.0, read-out: Solubility pH 5.0 Concentration
[15] = Table 5, selectivity, hCTR bind IC50 / hAmylin-R bind IC50
[16] = Table 5a, selectivity, hCTR bind IC50 / hAmylin-R bind IC50
[17] = Table 5b, selectivity, hCTR bind IC50 / hAmylin-R bind IC50
[18] = Table 5c, selectivity, hCTR bind IC50 / hAmylin-R bind IC50
[19] = Table 7, human binding selectivity, included for comparison
[20] = Table 7a (preferred compounds), human binding selectivity, included for comparison
[21] = ratio of human calcitonin receptor binding IC50 to human amylin receptor binding IC50
[22] = Table 7, rat binding selectivity, rCTR IC50 / rAmylin-R IC50
[23] = Table 7a (preferred compounds), rat binding selectivity, rCTR IC50 / rAmylin-R IC50
[24] = ratio of rCTR bind IC50 to rAmylin-R bind IC50

EC50 [1]	solubility at 18 h [2, 7]	solubility at 18 h [2, 8]	solubility at 18 h [2, 9]	solubility at 18 h [2, 10]	solubility at 18 h [2, 11]	solubility at 18 h [2, 12]	solubility at 18 h [2, 13]	solubility at 18 h [2, 14]	IC50 [3]	Ratio hCT/hAmylin binding [3, 15]	Ratio hCT/hAmylin binding [3, 16]	Ratio hCT/hAmylin binding [3, 19]	Ratio hCT/hAmylin binding [3, 20]	Ratio hCT/hAmylin binding [3, 21]	IC50 ([4]; Table 7)	Ratio rCT/rAmylin binding [4, 22]	Ratio rCT/rAmylin binding [4, 23]	Ratio rCT/rAmylin binding [4, 24]	IC50 [5]	Compound	other results
2.14 nM	≥ 200 µM	≥ 200 µM	≥ 200 µM	≥ 200 µM	≥ 200 µM	≥ 200 µM	≥ 200 µM	≥ 200 µM	0.29 nM	68.1	68.1	68.1	68.1	68.1	1.67 nM	36.2	36.2	36.2	19.8 nM	CC[C@H](C)[C@H](NC(=O)[C@H](C)NC(=O)CNC(=O)[C@H](Cc1ccccc1)NC(=O)[C@H](CC(N)=O)NC(=O)[C@@H]1CCCN1C(=O)[C@H](CO)NC(=O)[C@H](CO)NC(=O)[C@H](Cc1c[nH]cn1)NC(=O)[C@H](CCCNC(=N)N)NC(=O)[C@H](CC(C)C)NC(=O)[C@H](Cc1ccccc1)NC(=O)[C@H](Cc1c[nH]cn1)NC(=O)[C@H](C)NC(=O)[C@H](CC(C)C)NC(=O)[C@H](CCCNC(=N)N)NC(=O)[C@H](CCC(N)=O)NC(=O)[C@@H](NC(=O)[C@H](C)NC(=O)[C@@H]1CSSC[C@H](NC(=O)[C@@H](N)CCCCNC(=O)COCCOCCNC(=O)CC[C@H](NC(=O)CCCCCCCCCCCCCCCCCCC(=O)O)C(=O)O)C(=O)N[C@@H](CC(N)=O)C(=O)N[C@@H]([C@@H](C)O)C(=O)N[C@@H](C)C(=O)N[C@@H]([C@@H](C)O)C(=O)N1)[C@@H](C)O)C(=O)N1CCC[C@H]1C(=O)N[C@@H](CO)C(=O)N[C@@H](CO)C(=O)N[C@H](C(=O)N[C@@H](CC(N)=O)C(=O)N[C@H](C(=O)NCC(=O)N[C@@H](Cc1c[nH]cn1)C(=O)N[C@@H](CC(N)=O)C(=O)N[C@H](C(=O)N[C@@H](Cc1ccc(O)cc1)C(N)=O)[C@@H](C)O)C(C)C)[C@@H](C)O [Example 80] (H-K([AEEA-γGlu-C20 diacid])CNTATCATQRLAHFLRHSSPNFGAIPSSTNVGHNTY-NH2; disulfide 2-7; N-terminus assumed)	Ratio hCT/hAmylin binding [3, 17]: 68.1; Ratio hCT/hAmylin binding [3, 18]: 68.1; IC50 [6]: 60.4 nM
1.73 nM	≥ 200 µM	≥ 200 µM	≥ 200 µM	≥ 200 µM	≥ 200 µM	≥ 200 µM	≥ 200 µM	≥ 200 µM	0.271 nM	87.2	87.2	87.2	87.2	87.2	1.42 nM	42.9	42.9	42.9	23.6 nM	CC[C@H](C)[C@H](NC(=O)[C@H](C)NC(=O)CNC(=O)[C@H](Cc1ccccc1)NC(=O)[C@H](CC(N)=O)NC(=O)[C@@H]1CCCN1C(=O)[C@H](CO)NC(=O)[C@H](CO)NC(=O)[C@H](Cc1c[nH]cn1)NC(=O)[C@H](CCCNC(=N)N)NC(=O)[C@H](CC(C)C)NC(=O)[C@H](Cc1ccccc1)NC(=O)[C@H](Cc1c[nH]cn1)NC(=O)[C@H](C)NC(=O)[C@H](CC(C)C)NC(=O)[C@H](CCCNC(=N)N)NC(=O)[C@H](CCC(N)=O)NC(=O)[C@@H](NC(=O)[C@H](C)NC(=O)[C@@H]1CSSC[C@H](NC(=O)[C@@H](N)CCCCNC(=O)CC[C@H](NC(=O)CCCCCCCCCCCCCCCCCCC(=O)O)C(=O)O)C(=O)N[C@@H](CC(N)=O)C(=O)N[C@@H]([C@@H](C)O)C(=O)N[C@@H](C)C(=O)N[C@@H]([C@@H](C)O)C(=O)N1)[C@@H](C)O)C(=O)N1CCC[C@H]1C(=O)N[C@@H](CO)C(=O)N[C@@H](CO)C(=O)N[C@H](C(=O)N[C@@H](CC(N)=O)C(=O)N[C@H](C(=O)NCC(=O)N[C@@H](Cc1c[nH]cn1)C(=O)N[C@@H](CC(N)=O)C(=O)N[C@H](C(=O)N[C@@H](Cc1ccc(O)cc1)C(N)=O)[C@@H](C)O)C(C)C)[C@@H](C)O [Example 81] (H-K([γGlu-C20 diacid])CNTATCATQRLAHFLRHSSPNFGAIPSSTNVGHNTY-NH2; disulfide 2-7; N-terminus assumed)	Ratio hCT/hAmylin binding [3, 17]: 87.2; Ratio hCT/hAmylin binding [3, 18]: 87.2; IC50 [6]: 61.1 nM
7.43 nM	≥ 200 µM	≥ 200 µM	≥ 200 µM	≥ 200 µM	≥ 200 µM	≥ 200 µM	≥ 200 µM	≥ 200 µM	0.957 nM	14.7	14.7	14.7	14.7	14.7	2.86 nM	158.2	158.2	158.2	14.1 nM	CC[C@H](C)[C@H](NC(=O)[C@H](C)NC(=O)CNC(=O)[C@H](Cc1ccccc1)NC(=O)[C@H](CC(N)=O)NC(=O)[C@@H]1CCCN1C(=O)[C@H](CO)NC(=O)[C@H](CO)NC(=O)[C@H](Cc1c[nH]cn1)NC(=O)[C@H](CCCNC(=N)N)NC(=O)[C@H](CC(C)C)NC(=O)[C@H](Cc1ccccc1)NC(=O)[C@H](CCC(=O)O)NC(=O)[C@H](C)NC(=O)[C@H](CC(C)C)NC(=O)[C@H](CCCNC(=N)N)NC(=O)[C@H](CCC(N)=O)NC(=O)[C@@H](NC(=O)[C@H](C)NC(=O)[C@@H]1CSSC[C@H](NC(=O)[C@@H](N)CCCCNC(=O)CC[C@H](NC(=O)CC[C@H](NC(=O)CCCCCCCCCCCCCCCCCCC(=O)O)C(=O)O)C(=O)O)C(=O)N[C@@H](CC(N)=O)C(=O)N[C@@H]([C@@H](C)O)C(=O)N[C@@H](C)C(=O)N[C@@H]([C@@H](C)O)C(=O)N1)[C@@H](C)O)C(=O)N1CCC[C@H]1C(=O)N[C@@H](CO)C(=O)N[C@@H](CO)C(=O)N[C@H](C(=O)N[C@@H](CC(N)=O)C(=O)N[C@H](C(=O)NCC(=O)N[C@@H](CCCNC(=N)N)C(=O)N[C@@H](CCC(=O)O)C(=O)N[C@H](C(=O)N[C@@H](Cc1ccc(O)cc1)C(N)=O)[C@@H](C)O)C(C)C)[C@@H](C)O [Example 105] (H-K([γGlu-γGlu-C20 diacid])CNTATCATQRLAEFLRHSSPNFGAIPSSTNVGRETY-NH2; disulfide 2-7; N-terminus assumed)	IC50 [6]: 452 nM

Source: patent US9023789B2, “Amylin analogs and pharmaceutical compositions thereof” (Novo Nordisk A/S, priority 2012, dated 2015)
